Test results taken from publication doi:10.1101/2024.04.15.589676 (bioRxiv, 2024).
pEC50: −log10 of the molar value. Like-named read-outs stand apart in the source and are kept apart here.

Tests used:
[1] = test system: Vesicular stomatitis virus rVSV-SARS-CoV-2-S; details: inhibitor; read-out: EC50 rVSV-SARS-CoV-2-S, Vero
SARS-CoV-2 = test system: SARS-CoV-2; set-up: species or system human adult lung organoid-derived monolayers; SARS-CoV-2 infectious titre in organoid supernatants, plaque assay; details: inhibitor; read-out: EC50 SARS-CoV-2, ALO
in vitro = details: human, adult lung organoid monolayer
[2] = test system: SARS-CoV-2-nluc, WA1/2020; details: inhibitor; read-out: EC50 SARS-CoV-2-nluc, Calu-3
[3] = test system: Vesicular stomatitis virus rVSV-SARS-CoV-2-S; details: inhibitor; read-out: EC50 rVSV-SARS-CoV-2-S, Vero; remark: listed apart in the source
[4] = test system: Venezuelan equine encephalitis virus VEEV (TC-83); details: inhibitor; read-out: EC50 VEEV (TC-83), U-87 MG
DENV2 = test system: DENV2; set-up: DENV2 replication, plaque assay; details: inhibitor; read-out: EC50 DENV2, Huh7
Ebola virus EBOV = details: 48 h; inhibitor; read-out: EC50 EBOV, Huh7
Marburg virus MARV = details: 48 h; inhibitor; read-out: EC50 MARV, Huh7
Huh7 = details: human, huh7 cells

Cc1cccc(/C=N/Nc2cc(N3CCOCC3)nc(OCCc3ccccn3)n2)c1 [Apilimod]
pEC50 [1]: 7.92 | pEC50 (SARS-CoV-2): 6.38 | CC50 (in vitro): 9900 nM

COc1ccc(-c2cnc3c(C#Cc4cccnc4)snc3c2)cc1OC [RMC-113]
pEC50 [2]: 5.84 | pEC50 [3]: 5.74 | pEC50 [4]: 5.85 | pEC50 (DENV2): 5.85 | pEC50 (Ebola virus EBOV): 5.30 | pEC50 (Marburg virus MARV): 5.11 | CC50 (Huh7): > 10000 nM
